Data taken from ChEMBL document CHEMBL5370591, “A Potent and Narrow-Spectrum Antibacterial against Clostridioides difficile Infection” (J Med Chem, 2023).
Values after ≈ are worked out from the molar mass of the structure shown. Active and inactive are the calls of the source. The rule behind the calls is not given here.

Assays:
Bifidobacterium longum = assay: Antibacterial activity against Bifidobacterium longum HM-846 assessed as inhibition of bacterial growth by broth microdilution method; type: functional
Klebsiella pneumoniae = assay: Antibacterial activity against Klebsiella pneumoniae ATCC700603 assessed as inhibition of bacterial growth by broth microdilution method; type: functional
Bacillus cereus = assay: Antibacterial activity against Bacillus cereus ATCC 13061 assessed as inhibition of bacterial growth by broth microdilution method; type: functional
Klebsiella aerogenes = assay: Antibacterial activity against Klebsiella aerogenes ATCC35029 assessed as inhibition of bacterial growth by broth microdilution method; type: functional
Clostridioides difficile [1] = assay: Antibacterial activity against Clostridium difficile 26675 assessed as inhibition of bacterial growth by broth microdilution method; type: functional
Enterococcus faecalis [2] = assay: Antibacterial activity against vancomycin resistant Enterococcus faecalis 99 assessed as inhibition of bacterial growth by broth microdilution method; type: functional
Enterococcus faecium [3] = assay: Antibacterial activity against vancomycin resistant Enterococcus faecium 106 assessed as inhibition of bacterial growth by broth microdilution method; type: functional
Enterococcus faecalis [4] = assay: Antibacterial activity against Enterococcus faecalis ATCC 29212 assessed as inhibition of bacterial growth by broth microdilution method; type: functional
Clostridioides difficile [5] = assay: Antibacterial activity against Clostridium difficile 23828 assessed as inhibition of bacterial growth by broth microdilution method; type: functional
Clostridioides difficile [6] = assay: Antibacterial activity against Clostridium difficile BAA-1803 assessed as inhibition of bacterial growth by broth microdilution method; type: functional
Escherichia coli = assay: Antibacterial activity against Escherichia coli ATCC25922 assessed as inhibition of bacterial growth by broth microdilution method; type: functional
Clostridioides difficile [7] = assay: Antibacterial activity against Clostridium difficile 24531 assessed as inhibition of bacterial growth by broth microdilution method; type: functional
Enterococcus faecium [8] = assay: Antibacterial activity against vancomycin susceptible Enterococcus faecium119-39A assessed as inhibition of bacterial growth by broth microdilution method; type: functional; settings: 119-39A
Streptococcus pyogenes = assay: Antibacterial activity against Streptococcus pyogenes ATCC 49399 assessed as inhibition of bacterial growth by broth microdilution method; type: functional
[9] = test system: Staphylococcus haemolyticus; assay: Antibacterial activity against Staphylococcus haemolyticus ATCC 29970 assessed as inhibition of bacterial growth by broth microdilution method; type: functional
Acinetobacter baumannii = assay: Antibacterial activity against Acinetobacter baumannii ATCC17961 assessed as inhibition of bacterial growth by broth microdilution method; type: functional
Staphylococcus aureus [10] = assay: Antibacterial activity against vancomycin-resistant Staphylococcus aureus clinical isolate 1 assessed as inhibition of bacterial growth by broth microdilution method; type: functional
Clostridioides difficile [11] = assay: Antibacterial activity against Clostridium difficile ATCC 43255 assessed as damage in cell wall at 8 time MIC incubated for 24 hrs by scanning electron microscopy based analysis; type: functional, organism-based
Pseudomonas aeruginosa = assay: Antibacterial activity against Pseudomonas aeruginosa ATCC27853 assessed as inhibition of bacterial growth by broth microdilution method; type: functional
Staphylococcus aureus [12] = assay: Antibacterial activity against vancomycin-resistant Staphylococcus aureus clinical isolate 2 assessed as inhibition of bacterial growth by broth microdilution method; type: functional
Corynebacterium sp. = assay: Antibacterial activity against Corynebacterium sp. HM-784 assessed as inhibition of bacterial growth by broth microdilution method; type: functional
Enterococcus faecalis [13] = assay: Antibacterial activity against vancomycin susceptible Enterococcus faecalis 201 assessed as inhibition of bacterial growth by broth microdilution method; type: functional
Clostridioides difficile [14] = assay: Antibacterial activity against Clostridium difficile BAA-1870 assessed as inhibition of bacterial growth by broth microdilution method; type: functional
Bacillus licheniformis = assay: Antibacterial activity against Bacillus licheniformis ATCC 12759 assessed as inhibition of bacterial growth by broth microdilution method; type: functional
[15] = test system: Staphylococcus epidermidis; assay: Antibacterial activity against Staphylococcus epidermidis ATCC 35547 assessed as inhibition of bacterial growth by broth microdilution method; type: functional
Enterococcus faecium [16] = assay: Antibacterial activity against Enterococcus faecium NCTC 7171 assessed as inhibition of bacterial growth by broth microdilution method; type: functional
THP-1 = assay: Cytotoxicity against human THP-1 cells assessed as increase in LDH release incubate for 24 hrs by trypan-blue staining based analysis; type: functional, cell-based; settings: THP-1, 24 h
[17] = Selectivity ratio of IC50 for human THP-1 cells to MIC for Clostridium difficile ATCC 43255; type: toxicity
Clostridioides difficile [18] = assay: Antibacterial activity against Clostridium difficile ATCC 43255 measured after 48 hrs by two fold serial dilution method; type: functional
HepG2 = assay: Antiproliferative activity against human HepG2 cells assessed as inhibition of cell growth by XTT assay; type: functional, cell-based
[19] = Selectivity ratio of IC50 for human HepG2 cells to MIC for Clostridium difficile ATCC 43255; type: toxicity
[20] = test system: Limosilactobacillus reuteri; assay: Antibacterial activity against Lactobacillus reuteri HM-102 assessed as inhibition of bacterial growth by broth microdilution method; type: functional
Staphylococcus aureus [21] = assay: Antibacterial activity against Staphylococcus aureus ATCC 27660 assessed as inhibition of bacterial growth by broth microdilution method; type: functional
Clostridioides difficile [22] = assay: Antibacterial activity against Clostridium difficile NR49292 assessed as inhibition of bacterial growth by broth microdilution method; type: functional
Staphylococcus aureus [23] = assay: Antibacterial activity against Staphylococcus aureus NRS119 assessed as inhibition of bacterial growth by broth microdilution method; type: functional
Staphylococcus aureus [24] = assay: Antibacterial activity against Staphylococcus aureus NRS120 assessed as inhibition of bacterial growth by broth microdilution method; type: functional
Veillonella = assay: Antibacterial activity against Veillonella HM-49 assessed as inhibition of bacterial growth by broth microdilution method; type: functional
Clostridioides difficile [25] = assay: Antibacterial activity against Clostridium difficile ATCC 43255 assessed as inhibition of bacterial growth by broth microdilution method; type: functional
Clostridioides difficile [26] = assay: Antibacterial activity against Clostridium difficile NR49305 assessed as inhibition of bacterial growth by broth microdilution method; type: functional
Eubacterium sp. = assay: Antibacterial activity against Eubacterium sp. HM-178 assessed as inhibition of bacterial growth by broth microdilution method; type: functional
Streptococcus oralis = assay: Antibacterial activity against Streptococcus oralis ATCC 9811 assessed as inhibition of bacterial growth by broth microdilution method; type: functional
Clostridioides difficile [27] = assay: Antibacterial activity against Clostridium difficile NR49310 assessed as inhibition of bacterial growth by broth microdilution method; type: functional
Clostridioides difficile [28] = assay: Antibacterial activity against Clostridium difficile NR49302 assessed as inhibition of bacterial growth by broth microdilution method; type: functional
Bacteroides fragilis = assay: Antibacterial activity against Bacteroides fragilis HM-709 assessed as inhibition of bacterial growth by broth microdilution method; type: functional
Fusobacterium nucleatum = assay: Antibacterial activity against Fusobacterium nucleatum HM-992 assessed as inhibition of bacterial growth by broth microdilution method; type: functional
Lactobacillus gasseri = assay: Antibacterial activity against Lactobacillus gasseri HM-644 assessed as inhibition of bacterial growth by broth microdilution method; type: functional
Clostridioides difficile [29] = assay: Antibacterial activity against Clostridium difficile NR49294 assessed as inhibition of bacterial growth by broth microdilution method; type: functional
Staphylococcus aureus [30] = assay: Antibacterial activity against Staphylococcus aureus ATCC 29213 assessed as inhibition of bacterial growth by broth microdilution method; type: functional
Staphylococcus aureus [31] = assay: Antibacterial activity against Staphylococcus aureus NRS100 assessed as inhibition of bacterial growth by broth microdilution method; type: functional
Clostridioides difficile [32] = assay: Antibacterial activity against Clostridium difficile NR49318 assessed as inhibition of bacterial growth by broth microdilution method; type: functional

## Cc1ncc([N+](=O)[O-])n1CCO [METRONIDAZOLE]
Bifidobacterium longum
  MIC: 0.05 µg/mL (≈ 0.292 µM)
Klebsiella pneumoniae
  MIC: > 128 µg/mL
Bacillus cereus
  MIC: > 256 µg/mL
Klebsiella aerogenes
  MIC: > 128 µg/mL
Clostridioides difficile [1]
  MIC: 4 µg/mL (≈ 23.4 µM)
Enterococcus faecalis [2]
  MIC: > 256 µg/mL
Enterococcus faecium [3]
  MIC: > 16 µg/mL
Enterococcus faecalis [4]
  MIC: > 256 µg/mL
Clostridioides difficile [5]
  MIC: 0.5 µg/mL (≈ 2.92 µM)
Clostridioides difficile [6]
  MIC: 0.5 µg/mL (≈ 2.92 µM)
Escherichia coli
  MIC: > 128 µg/mL
Clostridioides difficile [7]
  MIC: 0.5 µg/mL (≈ 2.92 µM)
Enterococcus faecium [8]
  MIC: > 16 µg/mL
Streptococcus pyogenes
  MIC: > 128 µg/mL
[9]
  MIC: > 256 µg/mL
Acinetobacter baumannii
  MIC: > 128 µg/mL
Staphylococcus aureus [10]
  MIC: > 256 µg/mL
Clostridioides difficile [11]
  Activity: inactive
Pseudomonas aeruginosa
  MIC: > 128 µg/mL
Staphylococcus aureus [12]
  MIC: > 256 µg/mL
Corynebacterium sp.
  MIC: > 32 µg/mL
Enterococcus faecalis [13]
  MIC: > 256 µg/mL
Clostridioides difficile [14]
  MIC: 0.5 µg/mL (≈ 2.92 µM)
Bacillus licheniformis
  MIC: > 256 µg/mL
[15]
  MIC: > 128 µg/mL
Enterococcus faecium [16]
  MIC: > 128 µg/mL

## O=[N+]([O-])c1c[nH]c(-c2nc(-c3ccc(OC4CCC4)cc3)no2)n1
THP-1
  IC50: > 128 µg/mL
[17]
  selectivity ratio: > 512
Clostridioides difficile [18]
  MIC: 0.25 µg/mL (≈ 0.764 µM)
HepG2
  IC50: 41.9 µg/mL (≈ 128 µM)
[19]
  selectivity ratio: 168

## Oc1ccc(-c2nc(-c3ccc(OC4CCCC4)cc3)no2)cc1
Bifidobacterium longum
  MIC: 1 µg/mL (≈ 3.1 µM)
[20]
  MIC: > 128 µg/mL
THP-1
  IC50: 18 µg/mL (≈ 55.8 µM)
Klebsiella pneumoniae
  MIC: > 128 µg/mL
Staphylococcus aureus [21]
  MIC: 2 µg/mL (≈ 6.2 µM)
Bacillus cereus
  MIC: 2 µg/mL (≈ 6.2 µM)
Klebsiella aerogenes
  MIC: > 128 µg/mL
Clostridioides difficile [1]
  MIC: 4 µg/mL (≈ 12.4 µM)
Clostridioides difficile [22]
  MIC: 2 µg/mL (≈ 6.2 µM)
Enterococcus faecalis [2]
  MIC: 4 µg/mL (≈ 12.4 µM)
Staphylococcus aureus [23]
  MIC: 1 µg/mL (≈ 3.1 µM)
Staphylococcus aureus [24]
  MIC: 2 µg/mL (≈ 6.2 µM)
Enterococcus faecium [3]
  MIC: 2 µg/mL (≈ 6.2 µM)
Enterococcus faecalis [4]
  MIC: 4 µg/mL (≈ 12.4 µM)
Veillonella
  MIC: > 128 µg/mL
Clostridioides difficile [25]
  MIC: 2 µg/mL (≈ 6.2 µM)
Clostridioides difficile [26]
  MIC: 2 µg/mL (≈ 6.2 µM)
Clostridioides difficile [5]
  MIC: 4 µg/mL (≈ 12.4 µM)
Escherichia coli
  MIC: > 128 µg/mL
Clostridioides difficile [7]
  MIC: 4 µg/mL (≈ 12.4 µM)
Enterococcus faecium [8]
  MIC: 2 µg/mL (≈ 6.2 µM)
Streptococcus pyogenes
  MIC: > 128 µg/mL
Eubacterium sp.
  MIC: 4 µg/mL (≈ 12.4 µM)
Streptococcus oralis
  MIC: > 128 µg/mL
Clostridioides difficile [27]
  MIC: 4 µg/mL (≈ 12.4 µM)
[9]
  MIC: 2 µg/mL (≈ 6.2 µM)
Acinetobacter baumannii
  MIC: > 128 µg/mL
Clostridioides difficile [28]
  MIC: 2 µg/mL (≈ 6.2 µM)
Staphylococcus aureus [10]
  MIC: 2 µg/mL (≈ 6.2 µM)
Bacteroides fragilis
  MIC: 2 µg/mL (≈ 6.2 µM)
Fusobacterium nucleatum
  MIC: 2 µg/mL (≈ 6.2 µM)
Pseudomonas aeruginosa
  MIC: > 128 µg/mL
Lactobacillus gasseri
  MIC: > 128 µg/mL
Staphylococcus aureus [12]
  MIC: 2 µg/mL (≈ 6.2 µM)
Enterococcus faecalis [13]
  MIC: 4 µg/mL (≈ 12.4 µM)
Clostridioides difficile [29]
  MIC: 2 µg/mL (≈ 6.2 µM)
Clostridioides difficile [14]
  MIC: 2 µg/mL (≈ 6.2 µM)
Bacillus licheniformis
  MIC: 4 µg/mL (≈ 12.4 µM)
Staphylococcus aureus [30]
  MIC: 2 µg/mL (≈ 6.2 µM)
[15]
  MIC: 2 µg/mL (≈ 6.2 µM)
Enterococcus faecium [16]
  MIC: 4 µg/mL (≈ 12.4 µM)
Staphylococcus aureus [31]
  MIC: 1 µg/mL (≈ 3.1 µM)
Clostridioides difficile [32]
  MIC: 4 µg/mL (≈ 12.4 µM)
